Legend:
PATZ1 and PRRX1 = test: RT-qPCR of transcription factors in PTEN-null GBM cells; format: cell-based, human; conditions: U87 and U251 cells; BAPN 200 μM
Experimental: (§1) Cell Culture. The GBM cell lines U87, U251, SF763, LN229, and CT2A, as well as 293T cells were cultured in Dulbecco's Modified Eagle's Medium (DMEM; Gibco, #11995-065). The mouse glioma cell line GL261 cells and SIM-A9 microglia were cultured in Dulbecco's Modified Eagle Medium-Ham's F12 medium (Gibco, #10565-018). HMC3 microglia were cultured in Eagle's Minimum Essential Medium (ATCC, #30-2003). THP-1 macrophages were cultured in RPMI 1640 medium (Gibco, #11875093). All cell lines were cultured in the indicated medium containing 10% fetal bovine serum (FBS; Fisher Scientific, #16140071) and 1:100 antibiotic-antimycotic (Gibco, #15140-122), and were purchased from the American Type Culture Collection (ATCC). Human GSCs (GSC23 and GSC7-10) and mouse GBM tumor-derived 005 GSCs and QPP7 GSCs were cultured in neural stem cell (NSC) proliferation media (Millipore, #SCM005) containing 20 ng/mL epidermal growth factor (EGF; PeproTech, #AF-100-15) and basic fibroblast growth factor (bFGF; PeproTech, #100-18B). Human GSCs were gifted by Dr. Frederick F. Lang from the Brain Tumor Center (The University of Texas MD Anderson Cancer Center). […]
Quantitative real-time PCR (RT-qPCR). […] RNA was quantified by NanoDrop spectrophotometers and then the All-In-One 5× RT MasterMix (Applied Biological Materials, #G592) was used to reverse-transcribe RNA into cDNA in T100 Thermal Cycler (Bio-Rad). […]

PD-L1 = test: Immunoblots for PD-L1 in PTEN-deficient GBM cells; format: cell-based, human and mouse; conditions: immunoblot; U87, PTEN-KO SF763, CT2A, 005 GSC, GSC23, GSC7-10; 24 hours
Experimental: as §1, with “Center). 005 GSCs and QPP7 GSCs were provided by Dr. Samuel D. Rabkin (Massachusetts General Hospital) and Dr. Jian Hu (The University of Texas MD Anderson Cancer Center), respectively. PTEN CRISPR KO in SF763 and LN229 cells were generated.” for “Center).”

[1] = LC-MS/MS quantification of BAPN in plasma and brain; format: in vivo, C57BL/6 mice; conditions: BAPN 2 g/L in drinking water; concentration in plasma and brain after 1, 2, 4, 8 hours
Experimental: Mass spectrometry. A high-performance liquid chromatography tandem mass spectrometry (LC-MS/MS) assay was developed to quantify BAPN and SR9009 in plasma and brain of C57BL/6 mice. Specifically, the blood and brain tissues were collected after 1, 2, 4, and 8 hours of the administration of BAPN (2 g/L in drinking water) or SR9009 (100 mg/kg body weight, i.p.). The plasma was generated using the standard centrifugation techniques, and the brain tissues were pulverized by cryogenic grinding with liquid nitrogen. The plasma and brain tissue samples were mixed with internal standards, deproteinized with MeOH, and processed into LC-MS/MS to test the concentration of BAPN or SR9009. The analysis was performed at the Mass Spectrometry Core in Research Resources Center of University of Illinois at Chicago.

LOX = test: Immunoblots for LOX in CT2A cells and 005 GSCs; format: cell-based, mouse; conditions: immunoblot, SR9009 5 μM
Experimental: as §1, with “Center). 005 GSCs and QPP7 GSCs were provided by Dr. Samuel D. Rabkin (Massachusetts General Hospital) and Dr. Jian Hu (The University of Texas MD Anderson Cancer Center), respectively. PTEN CRISPR KO in SF763 and LN229 cells were generated.” for “Center).”

Row | SMILES | mRNA expression of PATZ1 (PATZ1 and PRRX1) | mRNA expression of PRRX1 (PATZ1 and PRRX1) | expression of PD-L1 (PD-L1) | ability to cross the blood-brain barrier (BBB) [1] | LOX expression (LOX)
1 | N#CCCN [BAPN, β-aminopropionitrile] | upregulated | upregulated | upregulated | showed an ability to cross the blood-brain barrier | 
2 | CCOC(=O)N1CCC(CN(Cc2ccc(Cl)cc2)Cc2ccc([N+](=O)[O-])s2)C1 (centres unmarked) [SR9009] |  |  |  |  | did not affect

Reference: patent US20250186396A1, “COMPOSITIONS AND METHODS FOR THE TREATMENT OF GLIOBLASTOMA WITH A DUAL TARGETING ANTI-TUMOR COMPOSITION” (Northwestern University, priority 2023, published 2025)
